# According to article PMC10897476, “Pyridylpiperazine efflux pump inhibitor boosts in vivo antibiotic efficacy against K. pneumoniae” (EMBO Molecular Medicine, 2023):
# Where “and” joins values, the source holds several entries; their conditions need not be identical. Identical values can stand only once. Like-named read-outs stand apart in the source and are kept apart here.
# Assays:
# [1] = target: T1, hERG Human Potassium Ion Channel (Homo sapiens, UniProt Q12809); assay: hERG [3H] Dofetilide binding assay; conditions: at 30 µM
# T1 construct: Eurofins Cerep France (contract assay)
# T1 sequence (Q12809 whole entry): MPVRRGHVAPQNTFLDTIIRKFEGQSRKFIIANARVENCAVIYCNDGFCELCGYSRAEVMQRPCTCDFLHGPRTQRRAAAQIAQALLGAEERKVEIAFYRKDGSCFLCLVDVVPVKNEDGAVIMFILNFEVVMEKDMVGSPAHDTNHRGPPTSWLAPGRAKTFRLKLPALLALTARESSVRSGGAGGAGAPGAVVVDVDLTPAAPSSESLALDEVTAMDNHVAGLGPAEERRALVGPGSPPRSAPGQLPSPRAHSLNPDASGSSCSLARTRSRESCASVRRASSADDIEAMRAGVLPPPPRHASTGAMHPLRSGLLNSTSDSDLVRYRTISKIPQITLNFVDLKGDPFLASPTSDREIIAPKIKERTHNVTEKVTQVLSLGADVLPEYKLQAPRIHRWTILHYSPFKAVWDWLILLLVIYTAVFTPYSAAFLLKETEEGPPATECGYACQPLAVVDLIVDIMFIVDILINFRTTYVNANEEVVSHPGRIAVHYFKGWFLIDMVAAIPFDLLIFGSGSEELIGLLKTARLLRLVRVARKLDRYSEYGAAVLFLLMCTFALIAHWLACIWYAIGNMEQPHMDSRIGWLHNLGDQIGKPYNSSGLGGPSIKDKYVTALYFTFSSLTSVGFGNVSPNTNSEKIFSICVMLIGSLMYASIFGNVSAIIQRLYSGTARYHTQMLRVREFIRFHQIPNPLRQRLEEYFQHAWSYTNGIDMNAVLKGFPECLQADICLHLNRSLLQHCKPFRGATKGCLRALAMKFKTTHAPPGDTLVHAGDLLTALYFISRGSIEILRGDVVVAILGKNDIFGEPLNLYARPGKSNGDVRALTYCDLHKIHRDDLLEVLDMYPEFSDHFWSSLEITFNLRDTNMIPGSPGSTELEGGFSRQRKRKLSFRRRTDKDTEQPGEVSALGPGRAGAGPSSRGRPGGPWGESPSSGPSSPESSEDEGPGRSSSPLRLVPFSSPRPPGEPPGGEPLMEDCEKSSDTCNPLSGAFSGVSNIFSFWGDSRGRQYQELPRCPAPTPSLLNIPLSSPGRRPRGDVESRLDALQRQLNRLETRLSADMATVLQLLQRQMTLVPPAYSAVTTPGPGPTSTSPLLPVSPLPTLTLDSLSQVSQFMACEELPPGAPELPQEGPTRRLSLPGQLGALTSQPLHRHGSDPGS
# Procedure: hERG (human ether-a-go-go-related gene) inhibition was measured at Eurofins Cerep France using hERG Human Potassium Ion Channel [3H] Dofetilide Binding (Antagonist Radioligand) Assay.
# [2] = Pharmacokinetics in mice, single oral dose (plasma, whole lung); conditions: for concentration at 0.5 h / concentration at 1 h / concentration at 1.5 h / concentration at 2 h / concentration at 4 h / concentration at 6 h / concentration at 24 h: mice
# Procedure: BDM91288 (5) was dissolved in 10% kleptose hydroxypropyl-β-cyclodextrin in distilled water and administered per os at 30 mg/kg to female CD-1 mice (~25–30 g). The concentration of BDM91288 (5) in plasma and lungs was measured at different time points after administration of a single dose of compounds. Three mice per time point were anesthetized with isoflurane and blood taken from the retro-orbital sinus using sampling heparinated tubes (4 °C). The blood samples were centrifuged (3500 rpm, 20 min, 4 °C) for plasma separation and stored at −80 °C before BDM91288 measurement. After rodent sacrifice by cervical dislocation, lung was washed in sodium chloride solution (0.9%), frozen in liquid nitrogen and stored at −80 °C.
# Plasma and BAL fluid samples were thawed on ice. Aliquots were precipitated with ice-cold MeCN/MeOH 50:50 (1 to 10 ratio) containing propranolol (100 nM) as internal standard. The samples were vigorously mixed with a vortex and centrifuged for 10 min at 12,000 rpm, 4 °C, and the supernatants were transferred into Matrix tubes for LC-MS/MS analysis. Lungs were homogenized in ultrapure water, in a 1 to 4 ratio (W/V) (using a Tissue Lyzer II from Qiagen); then compounds were extracted with a MeOH/MeCN 50:50 mixture in a 1 to 1 ratio (V/V). After centrifugation (12,000 rpm, 10 min, 4 °C) of the homogenate samples, supernatants were diluted (1 to 10) with a MeOH/MeCN 50:50 mixture containing propranolol (100 nM) as internal standard and transferred into Matrix tubes for LC-MS/MS analysis. Spiked standard solutions were prepared the same way in control matrix.
# Samples were analysed using a UPLC system Acquity I Class (Waters), combined with a triple quadrupole mass spectrometer Xevo TQD (Waters). The column, placed at 40 °C, was an Acquity BEH C18 50 × 2.1 mm, 1.7 μm column (Waters) and the following mobile phases were used: H2O 0.1% HCOOH as solvent A and MeCN 0.1% HCOOH as solvent B at a flow rate of 0.6 mL/min. The gradient was initiated at 2% B, maintained for 10 s then increased linearly to 98% B in 1′50 and maintained at 98% B for 30 s before returning to initial conditions. […] Data analysis and processing were performed using MassLynx software (Waters).
# [3] = Plasma protein binding by equilibrium dialysis; type: in vitro ADME; conditions: pH 7.4, mouse plasma, read-out: plasma protein binding, Funbound
# Procedure: In vitro plasma protein binding of BDM91288 (5) was measured in mouse plasma using equilibrium dialysis. The RED inserts were placed in a 48-well Teflon Plate (Pierce). Samples were prepared by mixing test compound with plasma at the appropriate concentration to reach a final drug concentration of 10 μM. Triplicate aliquots of plasma containing BDM91288 (5) at a concentration of 10 μM were pipetted to plasma side (red) of the insert and PBS pH 7.4 was placed into the receiver side (white) of the insert. The plate was covered with sealing tape and incubated in a 37 °C orbital shaker water bath for 4 h. Following incubation, samples were prepared in a mixed matrix configuration. Aliquots of samples were pipetted into 96-well plates and precipitation buffer was added to precipitate the proteins. Samples were mixed by vortexing, then centrifuged for 10 min at 12,000 rpm at 4 °C. The supernatant was assayed directly by LC-MS/MS. The following equation was used to calculate the percentage of bound drug fraction (% PPB) using this equilibrium dialysis method: % unbound = ([Buffer chamber]/[Plasma chamber) × 100.
# [4] = female, CD-1, mouse, in vivo, po, 30 mg/kg
# [5] = female, CD-1, mouse, in vivo, po, 30 mg/kg, Caverage plasma, single 30 mg/kg p.o.
# [6] = female, CD-1, mouse, in vivo, po, 30 mg/kg, Caverage whole lung, single 30 mg/kg p.o.
smiles,measurement,setting,value
Clc1cc2cc(N3CCNCC3)ccc2nc1N1CCNCC1 [compound 5],inhibition of the hERG potassium channel,[1],8%
same,Tmax,[2]; [4],4 h
same,half-life,[2]; [4],> 10 h
same,AUC(0-t),"[2]; female, CD-1, mouse, in vivo, po, 30 mg/kg, AUC(0-24h) plasma, single 30 mg/kg p.o., female CD-1 mice",27 µM·h
same,AUC(0-t),"[2]; female, CD-1, mouse, in vivo, po, 30 mg/kg, AUC(0-24h) whole lung, single 30 mg/kg p.o., female CD-1 mice",3880 µM·h
same,concentration at 0.5 h,[2]; [5],0.8 µM
same,concentration at 1 h,[2]; [5],1.6 µM
same,concentration at 1.5 h,[2]; [5],1.3 µM
same,concentration at 2 h,[2]; [5],1.8 µM
same,concentration at 4 h,[2]; [5],2 µM
same,concentration at 6 h,[2]; [5],1.4 µM
same,concentration at 24 h,[2]; [5],0.5 µM
same,concentration at 0.5 h,[2]; [6],35.4 µM and 11700 ng/g
same,concentration at 1 h,[2]; [6],93.5 µM and 31000 ng/g
same,concentration at 1.5 h,[2]; [6],102 µM and 33800 ng/g
same,concentration at 2 h,[2]; [6],160 µM and 53100 ng/g
same,concentration at 4 h,[2]; [6],225 µM and 74700 ng/g
same,concentration at 6 h,[2]; [6],168 µM and 55900 ng/g
same,concentration at 24 h,[2]; [6],159 µM and 52800 ng/g
same,Cmax,"[2]; female, CD-1, mouse, in vivo, po, 30 mg/kg, Cmax plasma, single 30 mg/kg p.o., female CD-1 mice",2 µM
same,Cmax,"[2]; female, CD-1, mouse, in vivo, po, 30 mg/kg, Cmax whole lung, single 30 mg/kg p.o., female CD-1 mice",225 µM and 75000 ng/g
same,Cmax,"[2]; read-out: Cmax whole lung, single 30 mg/kg p.o., female CD-1 mice, listed as BDM91288 (5)",225 µM
same,"fraction unbound at 4 h, 10 μM",[3],0.54
